Assay results as given in patent US20250375460A1, “STAT DEGRADERS AND USES THEREOF” (Kymera Therapeutics, Inc., priority 2022, published 2025).

Target: T1, STAT3 (Homo sapiens, UniProt P40763)
T1 construct: expressed in transfected cells; host or cells: A549
Assay: STAT3 HiBiT degradation assay in transfected A549 cells
Assay type: cell-based
Settings: 24 h compound incubation, Nano-Glo HiBiT lytic detection, read-out: STAT3 HiBiT A549 degradation 24 h: Average external-Abs DC50
Protocol: Compound preparation and Cell seeding: The transfected A549 cells were harvested from dish into cell culture medium and cell numbers counted. Cells were diluted with culture medium to the desired density and 30 μL of cell suspension (about 2000 cells/well) were added into each well of a 384-well cell culture plate as designated and transferred into 37° C. 5% CO2 incubator for 24 h. Compounds were dissolved to 10 mM stock solution and 12 μL of the stock solution was transferred to a 384 LDV-plate. 3 fold, 10-point dilution was performed by transferring 4 μL compound into 8 μL DMSO using a TECAN (EVO200) liquid handler. 30 μL of diluted compound from compound source plate was transferred into the cell plate as designated by using Echo550 and transferred into 37° C. 5% CO2 incubator for 24 h.
Detection: Plates were removed from incubators and equilibrated at room temperature for 15 minutes. Nano-Glo Hibit Lytic Detection reagent (Promega Cat #N3040) was thawed and equilibrated to room temperature before the experiment. 30 μL of Nano-Glo Hibit Lytic Detection reagent was added into each well to be detected. The plates were held at room temperature for 10 min followed by reading on EnSpire.
Data analysis: The remaining activity was calculated following the formula: Remaining Activity(%)=100%×(Lumsample−LumNC)/(LumPC−LumNC). Calculate the IC50 by fitting the curve using Xlfit (v5.3.1.3), equation 201: fit=(A+((B−A)/(1+((x/C)^D)))); A: Bottom; B: Top; C: IC50; and D: Slope.
The letter codes for STAT3 DC50 include: A (<0.001 μM), B (0.001-0.01 μM), C (0.01-0.1 μM), and D (>0.1 μM).

T1 sequence (P40763 whole entry): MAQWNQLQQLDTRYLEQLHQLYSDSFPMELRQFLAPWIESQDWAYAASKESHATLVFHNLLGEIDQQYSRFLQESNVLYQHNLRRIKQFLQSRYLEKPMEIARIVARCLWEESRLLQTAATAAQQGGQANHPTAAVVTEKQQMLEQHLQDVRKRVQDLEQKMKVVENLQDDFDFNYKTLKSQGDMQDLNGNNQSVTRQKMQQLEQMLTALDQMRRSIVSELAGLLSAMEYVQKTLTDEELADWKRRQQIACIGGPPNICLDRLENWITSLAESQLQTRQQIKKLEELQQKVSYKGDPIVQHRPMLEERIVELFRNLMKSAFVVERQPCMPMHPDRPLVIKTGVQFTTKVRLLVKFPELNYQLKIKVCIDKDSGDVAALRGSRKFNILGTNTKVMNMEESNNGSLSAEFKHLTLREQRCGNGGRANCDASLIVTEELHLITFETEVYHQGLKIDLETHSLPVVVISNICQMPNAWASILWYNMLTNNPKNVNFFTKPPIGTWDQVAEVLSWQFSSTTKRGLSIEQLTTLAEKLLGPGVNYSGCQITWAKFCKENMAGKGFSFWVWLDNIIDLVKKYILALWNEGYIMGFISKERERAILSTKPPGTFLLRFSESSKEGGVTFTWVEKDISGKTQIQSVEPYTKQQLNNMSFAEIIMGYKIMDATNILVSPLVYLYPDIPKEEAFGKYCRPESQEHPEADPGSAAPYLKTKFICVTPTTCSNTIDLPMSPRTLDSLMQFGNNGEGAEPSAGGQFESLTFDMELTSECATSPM

Row | SMILES | DC50 [µM]
1 | C#Cc1ccc([C@H](C)NC(=O)[C@@H]2C[C@@H](O)CN2C(=O)[C@@H](c2cc(OCCCc3cccc(OC[C@H](CCC(N)=O)NC(=O)[C@@H]4CC[C@@H]5CCN(C(C)=O)C[C@H](NC(=O)c6cc7cc(C(=O)P(=O)(O)O)ccc7[nH]6)C(=O)N54)c3Cl)no2)C(C)C)cc1 [I-1] | < 0.001
2 | CC(=O)N1CC[C@H]2CC[C@@H](C(=O)N[C@@H](CCC(N)=O)COc3cccc(CCCOc4cc([C@@H](C(=O)N5C[C@H](O)C[C@H]5C(=O)N[C@@H](C)c5ccc(-c6scnc6C)cc5)C(C)C)on4)c3Cl)N2C(=O)[C@@H](NC(=O)c2cc3cc(C(=O)P(=O)(O)O)ccc3[nH]2)C1 [I-2] | 0.01 to 0.1
3 | C#Cc1ccc(CNC(=O)[C@@H]2C[C@@H](O)CN2C(=O)[C@@H](c2cc(OCCCc3cccc(OC[C@H](CCC(N)=O)NC(=O)[C@@H]4CC[C@@H]5CCN(C(C)=O)C[C@H](NC(=O)c6cc7cc(C(=O)P(=O)(O)O)ccc7[nH]6)C(=O)N54)c3Cl)no2)C(C)C)cc1 [I-3] | < 0.001
4 | C#Cc1ccc([C@H](C)NC(=O)[C@@H]2C[C@@H](O)CN2C(=O)[C@@H](NC(=O)CCCc2cccc(OC[C@H](CCC(N)=O)NC(=O)[C@@H]3CC[C@@H]4CCN(C(C)=O)C[C@H](NC(=O)c5cc6cc(C(=O)P(=O)(O)O)ccc6[nH]5)C(=O)N43)c2Cl)C(C)(C)C)cc1 [I-4] | 0.001 to 0.01
5 | C#Cc1ccc(CNC(=O)[C@@H]2C[C@@H](O)CN2C(=O)[C@@H](NC(=O)CCCc2cccc(OC[C@H](CCC(N)=O)NC(=O)[C@@H]3CC[C@@H]4CCN(C(C)=O)C[C@H](NC(=O)c5cc6cc(C(=O)P(=O)(O)O)ccc6[nH]5)C(=O)N43)c2Cl)C(C)(C)C)cc1 [I-5] | 0.001 to 0.01
6 | C#Cc1ccc(CNC(=O)[C@@H]2C[C@@H](O)CN2C(=O)[C@@H](c2cc(OCCCc3cccc(OC[C@H](CCC(N)=O)NC(=O)[C@@H]4CC[C@@H]5CCN(C(C)=O)C[C@H](NC(=O)c6cc7cc(C(=O)P(=O)(O)O)ccc7[nH]6)C(=O)N54)c3F)no2)C(C)C)cc1 [I-7] | < 0.001
7 | C#Cc1ccc([C@H](C)NC(=O)[C@@H]2C[C@@H](O)CN2C(=O)[C@@H](NC(=O)CCCc2cccc(OC[C@H](CCC(N)=O)NC(=O)[C@@H]3CC[C@@H]4CCN(C(C)=O)C[C@H](NC(=O)c5cc6cc(C(=O)P(=O)(O)O)ccc6[nH]5)C(=O)N43)c2F)C(C)(C)C)cc1 [I-8] | 0.001 to 0.01
8 | C#Cc1ccc(CNC(=O)[C@@H]2C[C@@H](O)CN2C(=O)[C@@H](NC(=O)CCCc2cccc(OC[C@H](CCC(N)=O)NC(=O)[C@@H]3CC[C@@H]4CCN(C(C)=O)C[C@H](NC(=O)c5cc6cc(C(=O)P(=O)(O)O)ccc6[nH]5)C(=O)N43)c2F)C(C)(C)C)cc1 [I-9] | 0.001 to 0.01
9 | C#Cc1ccc([C@H](C)NC(=O)[C@@H]2C[C@@H](O)CN2C(=O)[C@@H](c2cc(OCCCc3cccc(OC[C@H](CCC(N)=O)NC(=O)[C@@H]4CC[C@@H]5CCN(C(C)=O)C[C@H](NC(=O)c6cc7cc(C(=O)P(=O)(O)O)ccc7[nH]6)C(=O)N54)c3C)no2)C(C)C)cc1 [I-10] | 0.001 to 0.01
10 | C#Cc1ccc([C@H](C)NC(=O)[C@@H]2C[C@@H](O)CN2C(=O)[C@H](c2cc(OCCCc3cccc(OC[C@H](CCC(N)=O)NC(=O)[C@@H]4CC[C@@H]5CCN(C(C)=O)C[C@H](NC(=O)c6cc7cc(C(=O)P(=O)(O)O)ccc7[nH]6)C(=O)N54)c3C)no2)C(C)C)cc1 [I-11] | > 0.1
11 | C#Cc1ccc([C@H](C)NC(=O)[C@@H]2C[C@@H](O)CN2C(=O)[C@@H](NC(=O)CCCc2cccc(OC[C@H](CCC(N)=O)NC(=O)[C@@H]3CC[C@@H]4CCN(C(C)=O)C[C@H](NC(=O)c5cc6cc(C(=O)P(=O)(O)O)ccc6[nH]5)C(=O)N43)c2C)C(C)(C)C)cc1 [I-13] | 0.01 to 0.1
12 | C#Cc1ccc(CNC(=O)[C@@H]2C[C@@H](O)CN2C(=O)[C@@H](NC(=O)CCCc2cccc(OC[C@H](CCC(N)=O)NC(=O)[C@@H]3CC[C@@H]4CCN(C(C)=O)C[C@H](NC(=O)c5cc6cc(C(=O)P(=O)(O)O)ccc6[nH]5)C(=O)N43)c2C)C(C)(C)C)cc1 [I-14] | 0.001 to 0.01
13 | CC(=O)N1CC[C@H]2CC[C@@H](C(=O)N[C@@H](CCC(N)=O)COc3cccc(CCCOc4cc([C@H](C(=O)N5C[C@H](O)C[C@H]5C(=O)N[C@@H](C)c5ccc(-c6scnc6C)cc5)C(C)C)on4)c3F)N2C(=O)[C@@H](NC(=O)c2cc3cc(C(=O)P(=O)(O)O)ccc3[nH]2)C1 [I-15] | < 0.001
14 | CC(=O)N1CC[C@H]2CC[C@@H](C(=O)N[C@@H](CCC(N)=O)COc3cccc(CCCOc4cc([C@@H](C(=O)N5C[C@H](O)C[C@H]5C(=O)N[C@@H](C)c5ccc(-c6scnc6C)cc5)C(C)C)on4)c3C)N2C(=O)[C@@H](NC(=O)c2cc3cc(C(=O)P(=O)(O)O)ccc3[nH]2)C1 [I-20] | 0.01 to 0.1
15 | CC(=O)N1CC[C@H]2CC[C@@H](C(=O)N[C@@H](CCC(N)=O)COc3cccc(CCCOc4cc([C@H](C(=O)N5C[C@H](O)C[C@H]5C(=O)NCc5ccc(-c6scnc6C)cc5)C(C)C)on4)c3C)N2C(=O)[C@@H](NC(=O)c2cc3cc(C(=O)P(=O)(O)O)ccc3[nH]2)C1 [I-21] | < 0.001
16 | CC(=O)N1CC[C@H]2CC[C@@H](C(=O)N[C@@H](CCC(N)=O)COc3cccc(CCCOc4cc([C@@H](C(=O)N5C[C@H](O)C[C@H]5C(=O)NCc5ccc(-c6scnc6C)cc5)C(C)C)on4)c3C)N2C(=O)[C@@H](NC(=O)c2cc3cc(C(=O)P(=O)(O)O)ccc3[nH]2)C1 [I-22] | 0.01 to 0.1
17 | CC(=O)N1CC[C@H]2CC[C@@H](C(=O)N[C@@H](CCC(N)=O)COc3cccc(CCCOc4cc([C@H](C(=O)N5C[C@H](O)C[C@H]5C(=O)N[C@@H](C)c5ccc(-c6scnc6C)cc5)C(C)C)on4)c3Cl)N2C(=O)[C@@H](NC(=O)c2cc3cc(C(=O)P(=O)(O)O)ccc3[nH]2)C1 [I-23] | < 0.001
18 | CC(=O)N1CC[C@@H]2CC[C@H](C(=O)N[C@@H](CCC(N)=O)COc3cccc(CCCCC(=O)N[C@H](C(=O)N4C[C@H](O)C[C@H]4C(=O)NCc4ccc(-c5scnc5C)cc4)C(C)(C)C)c3Cl)N2C(=O)[C@H](NC(=O)c2cc3cc(C(=O)P(=O)(O)O)ccc3[nH]2)C1 [I-24] | > 0.1
19 | CCOP(=O)(OCC)C(=O)c1ccc2[nH]c(C(=O)N[C@H]3CN(C(C)=O)CC[C@H]4CC[C@@H](C(=O)N[C@@H](CCC(N)=O)COc5cccc(CCCOc6cc([C@H](C(=O)N7C[C@H](O)C[C@H]7C(=O)NCc7ccc(-c8scnc8C)cc7)C(C)C)on6)c5Cl)N4C3=O)cc2c1 [I-25] | 0.01 to 0.1
20 | CNC(=O)N1CC[C@H]2CC[C@@H](C(=O)N[C@@H](CCC(N)=O)COc3cccc(CCCC(=O)N[C@H](C(=O)N4C[C@H](O)C[C@H]4C(=O)N[C@@H](C)c4ccc(-c5scnc5C)cc4)C(C)(C)C)c3Cl)N2C(=O)[C@@H](NC(=O)c2cc3cc(C(F)(F)P(=O)(O)O)ccc3s2)C1 [I-26] | > 0.1
21 | CC(=O)N1CC[C@H]2CC[C@@H](C(=O)N[C@@H](CCC(N)=O)COc3cccc(CCCOc4cc([C@H](C(=O)N5C[C@H](O)C[C@H]5C(=O)NCc5ccc(-c6scnc6C)cc5)C(C)C)on4)c3Cl)N2C(=O)[C@@H](NC(=O)c2cc3cc(C(=O)P(=O)(O)O)ccc3[nH]2)C1 [I-27] | < 0.001
22 | CC(=O)N1CC[C@H]2CC[C@@H](S(=O)(=O)N[C@@H](CCC(N)=O)COc3cccc(CCCC(=O)N[C@H](C(=O)N4C[C@H](O)C[C@H]4C(=O)N[C@@H](C)c4ccc(-c5scnc5C)cc4)C(C)(C)C)c3Cl)N2C(=O)[C@@H](NC(=O)c2cc3cc(C(=O)P(=O)(O)O)ccc3[nH]2)C1 [I-30] | 0.001 to 0.01
